Experimental data published in patent publication US20230000813A1, “COMPOUND FOR THE TREATMENT OF BOVINE OR SWINE RESPIRATORY DISEASE” (Intervet Inc., priority 2016, published 2023).
≈ marks a conversion by molar mass, not a printed value.

system: Mannheimia haemolytica MH 6374 (ATCC 33396, reference strain); assay: MIC, broth-microdilution (CLSI VET01-A4); type: cell-based; settings: Mannheimia haemolytica MH 6374; read-out: MIC MH 6374
Outline: (§1)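 MIC values follow CLSI VET01-S3 interpretation, scored as the lowest concentration free of visible turbidity within a doubling dilution series in microdilution trays.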

SMILES | MIC [µM]
CC(C)(N)C(NC(=O)c1ccc(C#Cc2ccc(CNCC(F)(F)F)s2)cc1)C(=O)NO (racemic) [Compound 648] | 0.4 (≈ 0.187 µg/mL)
CC(C)([C@H](NC(=O)c1ccc(C#Cc2ccc(CNCc3ccnc(Cl)c3)cc2)cc1)C(=O)NO)S(C)(=O)=O [Compound 614] | 0.4 (≈ 0.228 µg/mL)
CC(C)(O)C(NC(=O)c1ccc(C#Cc2ccc(CNCc3cccnc3)cc2)cc1)C(=O)NO (centres unmarked) [Compound 574] | 0.4 (≈ 0.189 µg/mL)
CC(C)(C(NC(=O)c1ccc(C#Cc2ccc(CNCc3cccnc3)cc2)cc1)C(=O)NO)S(C)(=O)=O (centres unmarked) [C. 613] | 0.4 (≈ 0.214 µg/mL)
CC(C)(C(NC(=O)c1ccc(C#Cc2ccc(CNCc3ccco3)cc2)cc1)C(=O)NO)S(C)(=O)=O (centres unmarked) [C. 616] | 0.2 (≈ 0.105 µg/mL)

system: Pasteurella multocida PM 12080 (IV102277-0093, BRD field isolate); assay: MIC, broth-microdilution (CLSI VET01-A4); type: cell-based; settings: Pasteurella multocida PM 12080
Outline: as §1

SMILES | MIC PM 12080
CC(C)([C@H](NC(=O)c1ccc(C#Cc2ccc(CNCc3ccnc(Cl)c3)cc2)cc1)C(=O)NO)S(C)(=O)=O [Compound 614] | <=0.1 μM
CC(C)(O)C(NC(=O)c1ccc(C#Cc2ccc(CNCc3cccnc3)cc2)cc1)C(=O)NO (centres unmarked) [Compound 574] | <=0.1 μM
CC(C)(C(NC(=O)c1ccc(C#Cc2ccc(CNCc3cccnc3)cc2)cc1)C(=O)NO)S(C)(=O)=O (centres unmarked) [C. 613] | <=0.1 μM
CC(C)(C(NC(=O)c1ccc(C#Cc2ccc(CNCc3ccco3)cc2)cc1)C(=O)NO)S(C)(=O)=O (centres unmarked) [C. 616] | <=0.1 μM

same assay, conditions: Pasteurella multocida PM 12080; read-out: MIC PM 12080

SMILES | MIC [µM]
CC(C)(N)C(NC(=O)c1ccc(C#Cc2ccc(CNCC(F)(F)F)s2)cc1)C(=O)NO (racemic) [Compound 648] | 0.2 (≈ 0.0937 µg/mL)

system: Pasteurella multocida PM 6391 (ATCC 43137, reference strain); assay: MIC, broth-microdilution (CLSI VET01-A4); type: cell-based; settings: Pasteurella multocida PM 6391
Outline: as §1

SMILES | MIC PM 6391
CC(C)([C@H](NC(=O)c1ccc(C#Cc2ccc(CNCc3ccnc(Cl)c3)cc2)cc1)C(=O)NO)S(C)(=O)=O [Compound 614] | <=0.1 μM
CC(C)(O)C(NC(=O)c1ccc(C#Cc2ccc(CNCc3cccnc3)cc2)cc1)C(=O)NO (centres unmarked) [Compound 574] | <=0.1 μM
CC(C)(C(NC(=O)c1ccc(C#Cc2ccc(CNCc3cccnc3)cc2)cc1)C(=O)NO)S(C)(=O)=O (centres unmarked) [C. 613] | <=0.1 μM
CC(C)(C(NC(=O)c1ccc(C#Cc2ccc(CNCc3ccco3)cc2)cc1)C(=O)NO)S(C)(=O)=O (centres unmarked) [C. 616] | <=0.1 μM

same assay, conditions: Pasteurella multocida PM 6391; read-out: MIC PM 6391

SMILES | MIC [µM]
CC(C)(N)C(NC(=O)c1ccc(C#Cc2ccc(CNCC(F)(F)F)s2)cc1)C(=O)NO (racemic) [Compound 648] | 0.4 (≈ 0.187 µg/mL)

system: Pasteurella multocida PM 6267 (P 2225 (L386), reference strain, mouse infection strain); assay: MIC, broth-microdilution (CLSI VET01-A4); type: cell-based; settings: Pasteurella multocida PM 6267
Outline: as §1

SMILES | MIC PM 6267
CC(C)(N)C(NC(=O)c1ccc(C#Cc2ccc(CNCC(F)(F)F)s2)cc1)C(=O)NO (racemic) [Compound 648] | <=0.1 μM
CC(C)([C@H](NC(=O)c1ccc(C#Cc2ccc(CNCc3ccnc(Cl)c3)cc2)cc1)C(=O)NO)S(C)(=O)=O [Compound 614] | <=0.1 μM
CC(C)(O)C(NC(=O)c1ccc(C#Cc2ccc(CNCc3cccnc3)cc2)cc1)C(=O)NO (centres unmarked) [Compound 574] | <=0.1 μM
CC(C)(C(NC(=O)c1ccc(C#Cc2ccc(CNCc3cccnc3)cc2)cc1)C(=O)NO)S(C)(=O)=O (centres unmarked) [C. 613] | <=0.1 μM
CC(C)(C(NC(=O)c1ccc(C#Cc2ccc(CNCc3ccco3)cc2)cc1)C(=O)NO)S(C)(=O)=O (centres unmarked) [C. 616] | <=0.1 μM

system: Pasteurella multocida PM 10775 (080130003051, BRD field isolate); assay: MIC, broth-microdilution (CLSI VET01-A4); type: cell-based; settings: Pasteurella multocida PM 10775
Outline: as §1

SMILES | MIC PM 10775
CC(C)(N)C(NC(=O)c1ccc(C#Cc2ccc(CNCC(F)(F)F)s2)cc1)C(=O)NO (racemic) [Compound 648] | <=0.1 μM
CC(C)([C@H](NC(=O)c1ccc(C#Cc2ccc(CNCc3ccnc(Cl)c3)cc2)cc1)C(=O)NO)S(C)(=O)=O [Compound 614] | <=0.1 μM
CC(C)(O)C(NC(=O)c1ccc(C#Cc2ccc(CNCc3cccnc3)cc2)cc1)C(=O)NO (centres unmarked) [Compound 574] | <=0.1 μM
CC(C)(C(NC(=O)c1ccc(C#Cc2ccc(CNCc3cccnc3)cc2)cc1)C(=O)NO)S(C)(=O)=O (centres unmarked) [C. 613] | <=0.1 μM
CC(C)(C(NC(=O)c1ccc(C#Cc2ccc(CNCc3ccco3)cc2)cc1)C(=O)NO)S(C)(=O)=O (centres unmarked) [C. 616] | <=0.1 μM

system: Mannheimia haemolytica MH 12587 (1071, BRD field isolate, macrolide-resistance: erm+, E+); assay: MIC, broth-microdilution (CLSI VET01-A4); type: cell-based; settings: Mannheimia haemolytica MH 12587, macrolide-resistant
Outline: as §1

SMILES | MIC MH 12587 [µM]
CC(C)(N)C(NC(=O)c1ccc(C#Cc2ccc(CNCC(F)(F)F)s2)cc1)C(=O)NO (racemic) [Compound 648] | 0.8 (≈ 0.375 µg/mL)
CC(C)([C@H](NC(=O)c1ccc(C#Cc2ccc(CNCc3ccnc(Cl)c3)cc2)cc1)C(=O)NO)S(C)(=O)=O [Compound 614] | 0.8 (≈ 0.455 µg/mL)
CC(C)(O)C(NC(=O)c1ccc(C#Cc2ccc(CNCc3cccnc3)cc2)cc1)C(=O)NO (centres unmarked) [Compound 574] | 1.6 (≈ 0.756 µg/mL)
CC(C)(C(NC(=O)c1ccc(C#Cc2ccc(CNCc3cccnc3)cc2)cc1)C(=O)NO)S(C)(=O)=O (centres unmarked) [C. 613] | 1.6 (≈ 0.855 µg/mL)
CC(C)(C(NC(=O)c1ccc(C#Cc2ccc(CNCc3ccco3)cc2)cc1)C(=O)NO)S(C)(=O)=O (centres unmarked) [C. 616] | 0.8 (≈ 0.419 µg/mL)

system: Mannheimia haemolytica MH 6357 (M7/2, reference strain, cattle infection strain); assay: MIC, broth-microdilution (CLSI VET01-A4); type: cell-based; settings: Mannheimia haemolytica MH 6357; read-out: MIC MH 6357
Outline: as §1

SMILES | MIC [µM]
CC(C)(N)C(NC(=O)c1ccc(C#Cc2ccc(CNCC(F)(F)F)s2)cc1)C(=O)NO (racemic) [Compound 648] | 0.8 (≈ 0.375 µg/mL)
CC(C)([C@H](NC(=O)c1ccc(C#Cc2ccc(CNCc3ccnc(Cl)c3)cc2)cc1)C(=O)NO)S(C)(=O)=O [Compound 614] | 0.4 (≈ 0.228 µg/mL)
CC(C)(O)C(NC(=O)c1ccc(C#Cc2ccc(CNCc3cccnc3)cc2)cc1)C(=O)NO (centres unmarked) [Compound 574] | 0.8 (≈ 0.378 µg/mL)
CC(C)(C(NC(=O)c1ccc(C#Cc2ccc(CNCc3cccnc3)cc2)cc1)C(=O)NO)S(C)(=O)=O (centres unmarked) [C. 613] | 0.8 (≈ 0.428 µg/mL)
CC(C)(C(NC(=O)c1ccc(C#Cc2ccc(CNCc3ccco3)cc2)cc1)C(=O)NO)S(C)(=O)=O (centres unmarked) [C. 616] | 0.8 (≈ 0.419 µg/mL)

system: Mannheimia haemolytica MH 10720 (154, BRD field isolate); assay: MIC, broth-microdilution (CLSI VET01-A4); type: cell-based; settings: Mannheimia haemolytica MH 10720
Outline: as §1

SMILES | MIC MH 10720
CC(C)(N)C(NC(=O)c1ccc(C#Cc2ccc(CNCC(F)(F)F)s2)cc1)C(=O)NO (racemic) [Compound 648] | <=0.1 μM
CC(C)([C@H](NC(=O)c1ccc(C#Cc2ccc(CNCc3ccnc(Cl)c3)cc2)cc1)C(=O)NO)S(C)(=O)=O [Compound 614] | <=0.1 μM
CC(C)(O)C(NC(=O)c1ccc(C#Cc2ccc(CNCc3cccnc3)cc2)cc1)C(=O)NO (centres unmarked) [Compound 574] | <=0.1 μM
CC(C)(C(NC(=O)c1ccc(C#Cc2ccc(CNCc3cccnc3)cc2)cc1)C(=O)NO)S(C)(=O)=O (centres unmarked) [C. 613] | <=0.1 μM
CC(C)(C(NC(=O)c1ccc(C#Cc2ccc(CNCc3ccco3)cc2)cc1)C(=O)NO)S(C)(=O)=O (centres unmarked) [C. 616] | <=0.1 μM

system: Mannheimia haemolytica MH 13065 (XB0446-6003.9, BRD field isolate); assay: MIC, broth-microdilution (CLSI VET01-A4); type: cell-based; settings: not given
Outline: (§2)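 Broth microdilution per CLSI VET01-A4 using doubling dilution series of compound. MIC taken as the lowest concentration with no turbidity visible to the unaided eye, interpreted per CLSI VET01-S3.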

SMILES | MIC [µM]
CC(C)(N)C(NC(=O)c1ccc(C#Cc2ccc(CNCC(F)(F)F)s2)cc1)C(=O)NO (racemic) [Compound 648] | 0.4 (≈ 0.187 µg/mL)
CC(C)([C@H](NC(=O)c1ccc(C#Cc2ccc(CNCc3ccnc(Cl)c3)cc2)cc1)C(=O)NO)S(C)(=O)=O [Compound 614] | 0.2 (≈ 0.114 µg/mL)
CC(C)(O)C(NC(=O)c1ccc(C#Cc2ccc(CNCc3cccnc3)cc2)cc1)C(=O)NO (centres unmarked) [Compound 574] | 0.4 (≈ 0.189 µg/mL)
CC(C)(C(NC(=O)c1ccc(C#Cc2ccc(CNCc3cccnc3)cc2)cc1)C(=O)NO)S(C)(=O)=O (centres unmarked) [C. 613] | 0.8 (≈ 0.428 µg/mL)
CC(C)(C(NC(=O)c1ccc(C#Cc2ccc(CNCc3ccco3)cc2)cc1)C(=O)NO)S(C)(=O)=O (centres unmarked) [C. 616] | 0.2 (≈ 0.105 µg/mL)

system: Mannheimia haemolytica MH 13093 (XB0472-6014.1, BRD field isolate); assay: MIC, broth-microdilution (CLSI VET01-A4); type: cell-based; settings: not given
Outline: as §2

SMILES | MIC [µM]
CC(C)(N)C(NC(=O)c1ccc(C#Cc2ccc(CNCC(F)(F)F)s2)cc1)C(=O)NO (racemic) [Compound 648] | 1.6 (≈ 0.75 µg/mL)
CC(C)([C@H](NC(=O)c1ccc(C#Cc2ccc(CNCc3ccnc(Cl)c3)cc2)cc1)C(=O)NO)S(C)(=O)=O [Compound 614] | 0.4 (≈ 0.228 µg/mL)
CC(C)(O)C(NC(=O)c1ccc(C#Cc2ccc(CNCc3cccnc3)cc2)cc1)C(=O)NO (centres unmarked) [Compound 574] | 0.8 (≈ 0.378 µg/mL)
CC(C)(C(NC(=O)c1ccc(C#Cc2ccc(CNCc3cccnc3)cc2)cc1)C(=O)NO)S(C)(=O)=O (centres unmarked) [C. 613] | 0.8 (≈ 0.428 µg/mL)
CC(C)(C(NC(=O)c1ccc(C#Cc2ccc(CNCc3ccco3)cc2)cc1)C(=O)NO)S(C)(=O)=O (centres unmarked) [C. 616] | 0.4 (≈ 0.209 µg/mL)
